How the values were obtained:
[1] = Cohesive strength of HBE airway mucus, peel tester; design: species or system human; conditions: 200 mM NACA and NAC, 20 mM DTT
Description: In the Example 1, the inventors assessed the ability of NACA to reduce the rheological properties of a concentrated (cystic fibrosis-like) mucus, making it more flowable. In this phase, NACA was compared to both a classical clinical reducing agent (N-acetylcysteine; NAC) as well as a potent laboratory reducing agent (Dithiothreitol; DTT). The studies in this phase of the project were performed at a single dose, 200 mM for the mono-thiols NACA and NAC and 20 mM for the di-thiol DTT.
Methods. In this study, a single preparation of human bronchial epithelial (HBE) airway mucus at 5.4% solids (i.e., wet-to-dry ratio) was utilized as the test mucus sample. This sample was thawed on ice and split into 4 separate groups. The appropriate amount of test agent (see above) was added to each mucus sample: (1) PBS (vehicle control), (2) NACA, (3) NAC, and (4) DTT. Samples were incubated for 60 minutes at 37ÀöC prior to analysis. Note, the final mucus concentration of each sample (after test agent addition) was ˜4.9% solids.
The viscoelastic (i.e., rheological) properties of each mucus preparation was made using a cone-and-plate rheometer (DH3; TA Instruments). For each study, 100 ? of sample was loaded onto the rheometer. Stress controlled sweeps (for viscous and elastic modulus determination) were performed over frequencies from 10-2-102 Hz. […]

mucins = conditions: 20 mM; cited from earlier work
[2] = biological target: T1, glutamate cysteine ligase (GCL, EC 6.3.2.2) (Homo sapiens, UniProt P48506); conditions: read-out: Km of GCL for substrate; cited from earlier work
T1 sequence (P48506 1-637): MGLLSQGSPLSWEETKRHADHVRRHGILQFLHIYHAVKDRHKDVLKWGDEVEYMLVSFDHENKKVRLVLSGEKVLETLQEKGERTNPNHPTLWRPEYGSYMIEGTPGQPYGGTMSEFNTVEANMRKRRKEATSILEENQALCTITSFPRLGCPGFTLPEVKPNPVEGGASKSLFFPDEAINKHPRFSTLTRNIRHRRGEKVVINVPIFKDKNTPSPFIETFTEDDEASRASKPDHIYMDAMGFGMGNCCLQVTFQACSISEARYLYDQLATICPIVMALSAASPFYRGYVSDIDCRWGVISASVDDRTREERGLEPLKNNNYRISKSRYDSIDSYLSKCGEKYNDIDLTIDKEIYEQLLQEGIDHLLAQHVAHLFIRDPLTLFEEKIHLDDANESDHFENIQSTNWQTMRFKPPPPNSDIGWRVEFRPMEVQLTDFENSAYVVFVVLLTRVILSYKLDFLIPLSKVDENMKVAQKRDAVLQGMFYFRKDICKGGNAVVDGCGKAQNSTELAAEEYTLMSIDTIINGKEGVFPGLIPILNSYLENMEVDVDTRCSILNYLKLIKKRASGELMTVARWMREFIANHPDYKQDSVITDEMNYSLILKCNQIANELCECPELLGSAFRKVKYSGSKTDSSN
T1 sequence (P48507 1-274 partner): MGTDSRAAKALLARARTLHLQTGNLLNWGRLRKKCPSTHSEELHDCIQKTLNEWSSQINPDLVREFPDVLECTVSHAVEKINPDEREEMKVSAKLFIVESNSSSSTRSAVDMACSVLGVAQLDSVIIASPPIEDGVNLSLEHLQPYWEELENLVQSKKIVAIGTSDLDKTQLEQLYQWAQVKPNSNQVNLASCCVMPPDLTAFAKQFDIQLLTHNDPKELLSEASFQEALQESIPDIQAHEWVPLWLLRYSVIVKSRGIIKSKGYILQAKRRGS

[3] = Rheology (elasticity, viscosity) of concentrated HBE airway mucus, cone-and-plate rheometer; design: species or system human; conditions: for elasticity compared with the DTT group / viscosity compared with the DTT group: 200 mM NACA and NAC versus 20 mM DTT, all p<0.05
Description: In the Example 1, the inventors assessed the ability of NACA to reduce the rheological properties of a concentrated (cystic fibrosis-like) mucus, making it more flowable. In this phase, NACA was compared to both a classical clinical reducing agent (N-acetylcysteine; NAC) as well as a potent laboratory reducing agent (Dithiothreitol; DTT). The studies in this phase of the project were performed at a single dose, 200 mM for the mono-thiols NACA and NAC and 20 mM for the di-thiol DTT. Methods. In this study, a single preparation of human bronchial epithelial (HBE) airway mucus at 5.4% solids (i.e., wet-to-dry ratio) was utilized as the test mucus sample. This sample was thawed on ice and split into 4 separate groups. The appropriate amount of test agent (see above) was added to each mucus sample: (1) PBS (vehicle control), (2) NACA, (3) NAC, and (4) DTT. Samples were incubated for 60 minutes at 37ÀöC prior to analysis. Note, the final mucus concentration of each sample (after test agent addition) was ˜4.9% solids. The viscoelastic (i.e., rheological) properties of each mucus preparation was made using a cone-and-plate rheometer (DH3; TA Instruments). For each study, 100 ? of sample was loaded onto the rheometer. Stress controlled sweeps (for viscous and elastic modulus determination) were performed over frequencies from 10-2-102 Hz. To assess yield stress, creep-recovery studies were performed at stresses from 0.05 to 1.5 Pa. Next, the cohesive stress of each sample (i.e., how much force it takes to tear the mucus) was obtained using a peel tester (see Button et. al, PNAS 2018). Studies here were performed at a peel rate of 1 mm/sec.

[4] = humans, oral dose of 600 mg; cited from earlier work
[5] = normal airway surface, pH of 7.0-7.2; cited from earlier work
[6] = maximum tolerated doses (20%); cited from earlier work
[7] = oral, treatment periods of approximately 12-24 weeks, patients with chronic bronchitis; cited from earlier work
[8] = while intubated; cited from earlier work
[9] = cited from earlier work
WT mice = conditions: mouse, in vivo; cited from earlier work

## O[C@H](CS)[C@H](O)CS (racemic) [DTT, Dithiothreitol]
[1]
  cohesive strength, comparison between test agents: slightly better than NAC and NACA
mucins
  reduction of mucins: fully reduce mucins

## N[C@@H](CS)C(=O)O [cysteine, L-cysteine]
[2]
  Km: 100 to 300 µM

## CC(=O)N[C@@H](CS)C(=O)O [NAC, N-acetyl-L-cysteine]
[3]
  elasticity compared with the DTT group: significantly less than the DTT group
  viscosity compared with the DTT group: significantly less than the DTT group
[4]
  time after administration at which no NAC is detectable: 10 to 12 h
[5]
  fraction in the inactive protonated form: 99%
[6]
  mucus reduction in CF subjects: did not produce mucus reduction
[7]
  risk of adverse effects compared with placebo: without increasing the risk of adverse effects
  risk of exacerbations compared with placebo: reduces the risk of exacerbations
  symptoms compared with placebo: improves symptoms
[8]
  efficacy for atelectasis/mucus plugging: ineffective
[9]; high concentrations, delivered topically via bronchoscopy, subjects with CF or tracheostomies
  removal of mucus plugs: could remove mucus plugs
[9]; inhalation, high NAC concentrations (20%, 1,200 mOsm) aerosolized
  lung function following inhalation treatment: modest improvements in lung function
WT mice
  airway toxicity in WT mice: induced epithelial cell damage and acute neutrophilic responses

## CC(=O)N[C@@H](CS)C(N)=O
[3]
  elasticity compared with the DTT group: significantly less than the DTT group
  viscosity compared with the DTT group: significantly less than the DTT group
[3]; 200 mM dose
  elasticity and viscosity, NACA compared with NAC: no significant difference
  reducing the viscoelasticity of mucus: very effective
[1]; peel rate 1 mm/sec
  reduction of cohesive strength of mucus: very effective

B1: Dornasealfa: mucoactive agent reviewed for adults with acute lung conditions (protein, UniProt P24855 23-282, looked up)
Deoxyribonuclease-1: LKIAAFNIQTFGETKMSNATLVSYIVQILSRYDIALVQEVRDSHLTAVGKLLDNLNQDAPDTYHYVVSEPLGRNSYKERYLFVYRPDQVSAVDSYYYDDGCEPCGNDTFNREPAIVRFFSRFTEVREFAIVPLHAAPGDAVAEIDALYDVYLDVQEKWGLEDVMLMGDFNAGCSYVRPSQWSSIRLWTSPTFQWLIPDSADTTATPTHCAYDRIVVAGMLLRGAVVPDSALPFNFQAAYGLSDQLAQAISDHYPVEVMLK
[8]
  efficacy for atelectasis/mucus plugging: ineffective
